Patent US20040192777A1, “Novel anticancer diterpene compounds, process and uses thereof” (COUNCIL OF SCIENTIFIC AND INDUSTRIAL, priority 2003, published 2004)

Assays:
Type in all cases: cell-based
[1] = test system: human ovary cancer cells (OVCAR-5); assay: In vitro cytotoxicity (SRB) against OVCAR-5; settings: OVCAR-5 Ovary; for Growth inhibition, %: 48 h
Procedure: (§1) The human cancer cell lines were obtained either from National center for cell science, Pune, India or National Cancer Institute, Frederick, MD, U.S.A. Cells were grown in tissue culture flasks in complete growth medium (RPMI-1640 medium with 2 mM glutamine, 100 μg/ml streptomycin, pH 7.4, sterilized by filtration and supplemented with 10% sterilized fetal calf serum and 100 units/ml penicillin before use) at 37° C. in an atmosphere of 5% CO2 and 90% relative humidity in a carbon dioxide incubator. The cells at subconfluent stage were harvested from the flask by treatment with trypsin (0.05% trypsin in PBS containing 0.02% EDTA) and suspended in complete growth medium. Cells with cell viability of more than 97% by trypan blue exclusion technique were used for determination of cytotoxicity.
(§2) Compound 1 was dissolved in DMSO (dimethyl sulphoxide) to obtain a stock solution of 20 mg/ml. The stock solution was serially diluted with complete growth medium containing 50 μg/ml of gentamycin to obtain three working test solutions of 200, 60 and 20 μg/ml.
(§3) The suspension of human cancer cell lines of required cell density in complete growth medium was prepared and cell suspension of each cell line was placed in 96-well tissue culture plate (100 μl per well) for control, Compound 1 and positive control(s). The blank wells for each cell line and concentration of test material were also included that contained equivalent amount of complete growth medium only. The plates were incubated at 37° C. in an atmosphere of 5% CO2 and 90% relative humidity in a carbon dioxide incubator. The experiment was carried out in triplicate.
(§4) After 24-hours of incubation, the working solutions of Compound 1 of different concentrations (100 μl) were added in the experimental wells and blanks whereas positive controls of required concentrations (100 μl) were added into wells for positive controls. The equivalent amount of complete growth medium was added to control set.
(§5) The plates were further incubated for 48-hours (at 37° C. in an atmosphere of 5% CO2 and 90% relative humidity in a carbon dioxide incubator) after addition of test material etc. and then the cell growth was stopped by gently layering of 50 μl of TCA (50% trichloroacetic acid) on top of the medium in all the wells. The plates were incubated at 4° C. for one hour to fix the cells attached to the bottom of the wells. Liquids of all the wells were gently pipetted out and discarded. The plates were washed five times with distilled water to remove TCA, growth medium, low molecular weight metabolites, serum proteins etc. Plates were air dried.
(§6) Cell growth was measured by staining with sulforhodamine B dye (SRB). The SRB solution (100 μl of 0.4% SRB in 1% acetic acid) was added to each well and the plates were incubated at room temperature for 30 minutes. The unbound SRB was quickly removed by washing the wells five times with 1% acetic acid and plates were air dried. Tris-buffer (100 μl of 0.01M, pH 10.4) was added to all the wells and plates were gently stirred for 5 minutes on a mechanical stirrer. The optical density was recorded on ELISA reader at 540 nm.
(§7) The cell growth in presence of test material was determined by subtracting mean OD value of respective blank from the mean OD value of experimental set. Like wise, cell growth in absence of test material (control set) and in presence of positive control was also determined. The per cent cell growth in presence of test material was determined considering the cell growth in absence of test material as 100% and in turn per cent inhibition was calculated.
(§8) The human cancer cell lines were grown, harvested and cytotoxicity was determined exactly as mentioned in Example 3 except that the test material used was Compound 2 that was dissolved in DMSO and three working test solutions were prepared of the same concentrations as in Example 3.

[2] = test system: human lung cancer cell line HOP-62; assay: In vitro cytotoxicity (SRB) against HOP-62; settings: HOP-62 Lung; for Growth inhibition, %: 48 h
Procedure: as §1, §2, §3, §4, §5, §6, §7, §8

[3] = test system: human lung cancer cells (A-549); assay: In vitro cytotoxicity (SRB) against A-549; settings: A-549 Lung; for Growth inhibition, %: 48 h
Procedure: as §1, §2, §3, §4, §5, §6, §7, §8

[4] = test system: human prostate cancer cell line PC-3; assay: In vitro cytotoxicity (SRB) against PC-3; settings: PC-3 Prostate
Procedure: as §1, §2, §3, §4, §5, §6, §7, §8

[5] = test system: human liver cancer cells (Hep-2); assay: In vitro cytotoxicity (SRB) against Hep-2; settings: Hep-2 Liver
Procedure: The human cancer cell lines were obtained either from National center for cell science, Pune, India or National Cancer Institute, Frederick, MD, U.S.A. […] Cells with cell viability of more than 97% by trypan blue exclusion technique were used for determination of cytotoxicity. Compound 1 was dissolved in DMSO (dimethyl sulphoxide) to obtain a stock solution of 20 mg/ml. […] The blank wells for each cell line and concentration of test material were also included that contained equivalent amount of complete growth medium only. The plates were incubated at 37° C. in an atmosphere of 5% CO2 and 90% relative humidity in a carbon dioxide incubator. The experiment was carried out in triplicate. […] The equivalent amount of complete growth medium was added to control set. […] The plates were incubated at 4° C. for one hour to fix the cells attached to the bottom of the wells. Liquids of all the wells were gently pipetted out and discarded. The plates were washed five times with distilled water to remove TCA, growth medium, low molecular weight metabolites, serum proteins etc. Plates were air dried. Cell growth was measured by staining with sulforhodamine B dye (SRB). […] The optical density was recorded on ELISA reader at 540 nm. The cell growth in presence of test material was determined by subtracting mean OD value of respective blank from the mean OD value of experimental set. Like wise, cell growth in absence of test material (control set) and in presence of positive control was also determined. […] The human cancer cell lines were grown, harvested and cytotoxicity was determined exactly as mentioned in Example 3 except that the test material used was Compound 2 that was dissolved in DMSO and three working test solutions were prepared of the same concentrations as in Example 3.

[6] = test system: human cervix cancer cell line (SiHa); assay: In vitro cytotoxicity (SRB) against SiHa
Procedure: as §1, §2, §3, §4, §5, §6, §7, §8

[7] = test system: human colon cancer cells (HT-29); assay: In vitro cytotoxicity (SRB) against HT-29; settings: HT-29 Colon
Procedure: as §1, §2, §3, §4, §5, §6, §7, §8

[8] = test system: human CNS cancer cells (SK-N-MC); assay: In vitro cytotoxicity (SRB) against SK-N-MC; settings: 48 h
Procedure: as §1, §2, §3, §4, §5, §6, §7, §8

human cancer cell lines = assay: In vitro cytotoxicity (SRB), span over the cell line panel; settings: at 100 μg/ml, all human cancer cell lines studied except HOP-62
Procedure: as §1, with “cytotoxicity. […]” for “cytotoxicity.”
Cell growth was measured by staining with sulforhodamine B dye (SRB). […] The optical density was recorded on ELISA reader at 540 nm.
The cell growth in presence of test material was determined by subtracting mean OD value of respective blank from the mean OD value of experimental set. Like wise, cell growth in absence of test material (control set) and in presence of positive control was also determined. The per cent cell growth in presence of test material was determined considering the cell growth in absence of test material as 100% and in turn per cent inhibition was calculated. […]

[9] = Homo sapiens, 1 × 10^−4M, positive control, read-out: Growth inhibition, %
[10] = Homo sapiens, 1 × 10^−5M, positive control, read-out: Growth inhibition, %

| SMILES | Growth inhibition, % ([1]; 10 μg/ml) [%] | Growth inhibition, % ([1]; 30 μg/ml) [%] | Growth inhibition, % ([1]; 100 μg/ml) [%] | Growth inhibition, % ([2]; 10 μg/ml) [%] | Growth inhibition, % ([2]; 30 μg/ml) [%] | Growth inhibition, % ([2]; 100 μg/ml) [%] | Growth inhibition, % ([6]; 10 μg/ml, 48 h) [%] | Growth inhibition, % ([6]; 30 μg/ml, 48 h) [%] | Growth inhibition, % ([6]; 100 μg/ml, 48 h) [%] | Growth inhibition, % ([3]; 10 μg/ml) [%] | Growth inhibition, % ([3]; 30 μg/ml) [%] | Growth inhibition, % ([3]; 100 μg/ml) [%] | Growth inhibition, % ([4]; 10 μg/ml, 48 h) [%] | Growth inhibition, % ([4]; 30 μg/ml, 48 h) [%] | Growth inhibition, % ([4]; 100 μg/ml, 48 h) [%] | Growth inhibition, % ([7]; 10 μg/ml, 48 h) [%] | Growth inhibition, % ([7]; 30 μg/ml, 48 h) [%] | Growth inhibition, % ([7]; 100 μg/ml, 48 h) [%] | Growth inhibition, % ([8]; 10 μg/ml) [%] | Growth inhibition, % ([8]; 30 μg/ml) [%] | also measured |
| --- | --- | --- | --- | --- | --- | --- | --- | --- | --- | --- | --- | --- | --- | --- | --- | --- | --- | --- | --- | --- | --- |
| CC/C(=C(\c1ccccc1)c1ccc(OCCN(C)C)cc1)c1ccccc1 [Tamoxifen, reference compound] |  |  |  |  |  |  |  |  |  |  |  |  |  |  |  |  |  |  |  |  | inhibition at 100 µM [1, 9]: 100%; inhibition at 10 µM [1, 10]: 0%; inhibition at 100 µM [2, 9]: 20%; inhibition at 10 µM [2, 10]: 2%; inhibition at 100 µM ([3]; Homo sapiens, A549, 1 × 10^−4M, positive control, read-out: Growth inhibition, %): 98%; inhibition at 10 µM ([3]; Homo sapiens, A549, 1 × 10^−5M, positive control, read-out: Growth inhibition, %): 19% |
| CO[C@@]12[C@H](COC(N)=O)C3=C(C(=O)C(C)=C(N)C3=O)N1C[C@@H]1N[C@@H]12 [Mytomycin C, reference compound] |  |  |  |  |  |  |  |  |  |  |  |  |  |  |  |  |  |  |  |  | Growth inhibition, % ([4]; 1 × 10^−5M, positive control): 78%; Growth inhibition, % ([5]; 1 × 10^−5M, positive control): 87% |
| O=c1[nH]cc(F)c(=O)[nH]1 [Compound 5FU, reference compound] |  |  |  |  |  |  |  |  |  |  |  |  |  |  |  |  |  |  |  |  | Growth inhibition, % ([6]; 1 × 10^−4M, positive control): 17%; Growth inhibition, % ([7]; 1 × 10^−4M, positive control): 43% |
| C=C[C@]1(C)C=C2CCC3[C@@](C)(CCC[C@@]3(C)C(=O)O)C2CC1 (stereo partly drawn) [Compound 1, ent-pimmarane 8(14),15-diene-19 oic acid] | 00 | 66 | 76 | 00 | 00 | 03 | 00 | 14 | 41 | 13 | 72 | 94 | 05 | 78 | 97 | 02 | 70 | 94 | 00 | 75 | Growth inhibition, % ([8]; 100 μg/ml): 88%; inhibition of cell growth, span over the cell lines (human cancer cell lines): 41-97%; Growth inhibition, % ([5]; 10 μg/ml, 48 h): 20%; Growth inhibition, % ([5]; 30 μg/ml, 48 h): 68%; Growth inhibition, % ([5]; 100 μg/ml, 48 h): 80% |
| C=CC1(C)CC=C2C(=CCC3C(C)(C(=O)O)CCCC23C)C1 (stereo not drawn) [Compound 2, ent-pimmarane 7(8),9(11),15 triene-19 oic acid] | 12 | 67 | 96 | 00 | 00 | 00 | 00 | 8 | 38 | 09 | 71 | 97 | 00 | 83 | 94 | 00 | 70 | 95 | 22 | 85 | Growth inhibition, % ([8]; 100 μg/ml): 92%; inhibition of cell growth, span over the cell lines (human cancer cell lines): 38-97%; Growth inhibition, % ([5]; 10 μg/ml, 48 h): 18%; Growth inhibition, % ([5]; 30 μg/ml, 48 h): 70%; Growth inhibition, % ([5]; 100 μg/ml, 48 h): 91% |
